Patent US10363239B2, “Method for inhibiting growth of cancer cells” (Pain Therapeutics, Inc., priority 2013, dated 2019)
Read-outs that look alike come from different tables or passages of the source.

Columns and labels:
[1] = biological target: FLNA pentapeptide of SEQ ID NO: 1 (Bn-VAKGL) (Homo sapiens, UniProt P21333); assay: FITC-NLX-based FLNA screening assay (inhibition of FITC-naloxone binding to Bn-VAKGL on streptavidin plates); conditions: 10 nM FITC-NLX
mu opiate receptor (MOR) = assay: MOR agonist activity using [35S]GTPγS binding assay in striatal membranes; format: biochemical; conditions: for MOR agonist activity ([35S]GTPγS binding), FLNA-Binding Compound as Agonist 1 μM + BFNA: 1 μM compound + 1 μM β-funaltrexamine
In short: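 Striatal membranes (200 μg) were preincubated 5 min at 30 °C in HEPES pH 7.5 with 100 mM NaCl, 1 mM MgCl2 and 0.5 nM [35S]GTPγS, then 5 min more with 0.1–10 μM compound. Gαo was immunoprecipitated and bound radioactivity counted by scintillation.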

[2] = read-out: Percent Binding Inhibition, FLNA-binding compound 0.01 μM
[3] = read-out: Percent Binding Inhibition, FLNA-binding compound 0.1 μM
[4] = read-out: Percent Binding Inhibition, FLNA-binding compound 1 μM
[5] = Series C-1, 0.1 μM compound, relative to DAMGO
[6] = Series C-1, 0.1 μM compound, [35S]GTPγS binding to Gαo, striatal membranes
[7] = Series C-1, 1 μM compound + 1 μM β-FNA
[8] = Series C-1, 1 μM compound + β-FNA, relative to DAMGO + BFNA
[9] = Series C-1, 1 μM compound, relative to DAMGO
[10] = Series C-1, 1 μM compound, [35S]GTPγS binding to Gαo, striatal membranes
[11] = FLNA-binding compound 0.01 μM, read-out: Percent Binding Inhibition
[12] = FLNA-binding compound 0.1 μM, read-out: Percent Binding Inhibition
[13] = FLNA-binding compound 1 μM, read-out: Percent Binding Inhibition
[14] = 0.1 μM compound relative to DAMGO
[15] = 1 μM compound + BFNA relative to DAMGO + BFNA
[16] = 1 μM compound relative to DAMGO
[17] = Series B, 0.1 μM compound, relative to DAMGO
[18] = Series B, 0.1 μM compound, [35S]GTPγS binding to Gαo, striatal membranes
[19] = Series B, 1 μM compound + 1 μM β-FNA
[20] = Series B, 1 μM compound + β-FNA, relative to DAMGO + BFNA
[21] = Series B, 1 μM compound, relative to DAMGO
[22] = Series B, 1 μM compound, [35S]GTPγS binding to Gαo, striatal membranes

Row | Structure (SMILES) | inhibition at 0.01 µM [1, 2] | inhibition at 0.1 µM [1, 3] | inhibition at 1 µM [1, 4] | % DAMGO (0.1 μM) (mu opiate receptor (MOR); [5]) | Concentration of FLNA-Binding Compound as Agonist 0.1 μM (mu opiate receptor (MOR); [6]) | Concentration of FLNA-Binding Compound as Agonist 1 μM + BFNA (mu opiate receptor (MOR); [7]) | % DAMGO + BFNA (mu opiate receptor (MOR); [8]) | % DAMGO (1 μM) (mu opiate receptor (MOR); [9]) | Concentration of FLNA-Binding Compound as Agonist 1 μM (mu opiate receptor (MOR); [10]) | inhibition at 0.01 µM [1, 11] | inhibition at 0.1 µM [1, 12] | inhibition at 1 µM [1, 13] | MOR agonist activity ([35S]GTPγS binding), FLNA-Binding Compound as Agonist 0.1 μM (mu opiate receptor (MOR); 0.1 μM compound) | % DAMGO (0.1 μM) (mu opiate receptor (MOR); [14]) | MOR agonist activity ([35S]GTPγS binding), FLNA-Binding Compound as Agonist 1 μM (mu opiate receptor (MOR); 1 μM compound) | MOR agonist activity ([35S]GTPγS binding), FLNA-Binding Compound as Agonist 1 μM + BFNA (mu opiate receptor (MOR)) | % DAMGO + BFNA (mu opiate receptor (MOR); [15]) | % DAMGO (1 μM) (mu opiate receptor (MOR); [16]) | further results
1 | CS(=O)(=O)c1ccc(S(=O)(=O)N2CCC3(CC2)OCCN3S(=O)(=O)c2ccc(S(C)(=O)=O)cc2)cc1 [Compound C0009] | 41.7% | 49% | 53.9% | 85.1% | 146.3% | 26.4% | 41.2% | 92.6% | 256.2% |  |  |  |  |  |  |  |  |  | 
2 | CC1CN(CC(O)COC2CCCCC2)CC(C)O1 (stereo not drawn) [Compound A0017] |  |  |  |  |  |  |  |  |  | 29.8% | 38.6% | 44% | 161.9% | 96.9% | 246.0% | 65.2% | 187.9% | 100.4% | 
3 | CC1CCC(C(C)C)C(OCC(O)CN2CCCN(C)CC2)C1 (stereo not drawn) [Compound A0010] |  |  |  |  |  |  |  |  |  | 36% | 36.5% | 39% | 277.2% | 161.9% | 319.0% | 190.3% | 365.3% | 119.5% | 
4 | COc1c2c(cc3c1C(CC(O)CCc1ccccc1)[N+](C)(C)CC3)OCO2 (stereo not drawn) [Compound B0052] | 30.2% | 39.1% | 44.3% |  |  |  |  |  |  |  |  |  |  |  |  |  |  |  | % DAMGO (0.1 μM) (mu opiate receptor (MOR); [17]): 58.1%; MOR agonist activity, percent [35S]GTPγS binding at the stated compound concentration (mu opiate receptor (MOR); [18]): 98.2%; MOR agonist activity, percent [35S]GTPγS binding at the stated compound concentration (mu opiate receptor (MOR); [19]): 40.9%; % DAMGO + BFNA (mu opiate receptor (MOR); [20]): 246.4%; % DAMGO (1 μM) (mu opiate receptor (MOR); [21]): 69.3%; MOR agonist activity, percent [35S]GTPγS binding at the stated compound concentration (mu opiate receptor (MOR); [22]): 151.7%
5 | COc1ccc(C(=O)N2CCC3(CC2)OCCN3S(=O)(=O)c2ccc(OC)cc2)cc1 [Compound C0018] |  |  |  | 110.7% | 195.5% | 106.5% | 162.1% | 95.5% | 247.7% | 42.3% | 45.9% | 53.4% |  |  |  |  |  |  | 
6 | COc1ccc(N2CCN(CC(O)COC3CC(C)CCC3C(C)C)CC2)c(OC)c1 (stereo not drawn) [Compound A0012] | 39.7% | 49.6% | 54.4% |  |  |  |  |  |  |  |  |  | 149.3% | 99.9% | 185.7% | 122.4% | 461.9% | 80.7% | 
7 | CC1CCC(C(C)C)C(OCC(O)CN(C(C)C)C(C)C)C1 (stereo not drawn) [Compound A0037] | 49.3% | 51.3% | 56.8% |  |  |  |  |  |  |  |  |  | 177.9% | 90.7% | 236.2% | 104.6% | 141.5% | 85.6% | 
8 | CC1CN(CC(O)COc2ccccc2C(C)C)CC(C)O1 (stereo not drawn) [Compound A0029] |  |  |  |  |  |  |  |  |  | 44.4% | 44.4% | 50.8% | 173.8% | 98.4% | 206.5% | 22.3% | 84.8% | 81.2% | 
9 | COc1ccc(CCC(=O)CC2c3c(cc4c(c3OC)OCO4)CC[N+]2(C)C)c(OC)c1 (stereo not drawn) [Compound B0043] | 30.8% | 39.2% | 46.8% |  |  |  |  |  |  |  |  |  |  |  |  |  |  |  | % DAMGO (0.1 μM) (mu opiate receptor (MOR); [17]): 42.4%; MOR agonist activity, percent [35S]GTPγS binding at the stated compound concentration (mu opiate receptor (MOR); [18]): 74.8%; MOR agonist activity, percent [35S]GTPγS binding at the stated compound concentration (mu opiate receptor (MOR); [19]): 166.4%; % DAMGO + BFNA (mu opiate receptor (MOR); [20]): 632.7%; % DAMGO (1 μM) (mu opiate receptor (MOR); [21]): 97.6%; MOR agonist activity, percent [35S]GTPγS binding at the stated compound concentration (mu opiate receptor (MOR); [22]): 248.1%
10 | Cc1cccc(S(=O)(=O)N2CCC3(CC2)OCCN3S(=O)(=O)c2cccc(C)c2)c1 [Compound C0014] | 29.5% | 38.8% | 40% | 82.0% | 144.9% | 76.3% | 116.1% | 59.2% | 153.5% |  |  |  |  |  |  |  |  |  | 
11 | COc1c2c(cc3c1C(CC(=O)c1ccc(N4CCOCC4)cc1)[N+](C)(C)CC3)OCO2 (stereo not drawn) [Compound B0004] | 38.9% | 50% | 54.8% |  |  |  |  |  |  |  |  |  |  |  |  |  |  |  | % DAMGO (0.1 μM) (mu opiate receptor (MOR); [17]): 102.8%; MOR agonist activity, percent [35S]GTPγS binding at the stated compound concentration (mu opiate receptor (MOR); [18]): 170.3%; MOR agonist activity, percent [35S]GTPγS binding at the stated compound concentration (mu opiate receptor (MOR); [19]): 72.0%; % DAMGO + BFNA (mu opiate receptor (MOR); [20]): 110.8%; % DAMGO (1 μM) (mu opiate receptor (MOR); [21]): 85.8%; MOR agonist activity, percent [35S]GTPγS binding at the stated compound concentration (mu opiate receptor (MOR); [22]): 231.7%
12 | CCOc1ccc(C(=O)CC2c3c(cc4c(c3OC)OCO4)CC[N+]2(C)C)cc1F (stereo not drawn) [Compound B0020] | 38.1% | 45.5% | 50.6% |  |  |  |  |  |  |  |  |  |  |  |  |  |  |  | % DAMGO (0.1 μM) (mu opiate receptor (MOR); [17]): 30.1%; MOR agonist activity, percent [35S]GTPγS binding at the stated compound concentration (mu opiate receptor (MOR); [18]): 51.6%; MOR agonist activity, percent [35S]GTPγS binding at the stated compound concentration (mu opiate receptor (MOR); [19]): 24.9%; % DAMGO + BFNA (mu opiate receptor (MOR); [20]): 47.8%; % DAMGO (1 μM) (mu opiate receptor (MOR); [21]): 68.0%; MOR agonist activity, percent [35S]GTPγS binding at the stated compound concentration (mu opiate receptor (MOR); [22]): 181.6%
13 | Cc1ccc(S(=O)(=O)N2CCC3(CC2)OCCN3S(=O)(=O)c2ccc(C)cc2)cc1 [Compound C0001] | 34.8% | 42.9% | 51.3% | 75.2% | 129.3% | 33.9% | 52.9% | 66.6% | 184.3% |  |  |  |  |  |  |  |  |  | 
14 | CC1CCC(C(C)C)C(OCC(O)CN2CCCC2)C1 (stereo not drawn) [Compound A0001] | 39.7% | 45.6% | 52.4% |  |  |  |  |  |  |  |  |  | 94.3% | 63.1% | 181.7% | 22.2% | 83.8% | 78.9% | 
15 | COc1ccc(C(=O)N2CCC3(CC2)OCCN3C(=O)c2ccc(OC)cc2)cc1 [Compound C0017] |  |  |  | 87.1% | 153.8% | 94.1% | 143.2% | 109.7% | 284.5% | 28.9% | 35.4% | 40.7% |  |  |  |  |  |  | 
16 | COC(=O)c1ccc(S(=O)(=O)N2CCC3(CC2)OCCN3S(=O)(=O)c2ccc(C(=O)OC)cc2)cc1 [Compound C0028] |  |  |  | 55.6% | 93.9% | 78.4% | 472.3% | 60.5% | 132.4% | 32.2% | 36.6% | 43.3% |  |  |  |  |  |  | 
17 | CC(=O)c1ccc(S(=O)(=O)N2CCC3(CC2)OC(CN(C)C)CN3S(=O)(=O)c2ccc(C(C)=O)cc2)cc1 (stereo not drawn) [Compound C0065] | 37.1% | 44% | 47% | 127.0% | 198.3% | 47.7% | 119.5% | 121.3% | 279.5% |  |  |  |  |  |  |  |  |  | 
18 | OC(COc1ccc(Br)c(F)c1)CN1CCCCC1 (stereo not drawn) [Compound A0058] | 28.9% | 36.6% | 42.1% |  |  |  |  |  |  |  |  |  | 70.7% | 45.3% | 244.3% | 59.9% | 150.1% | 106.0% | 
